The text below walks through data of PMC8578629, “Photoactivated cell-killing amino-based flavylium compounds” (Scientific Reports, 2021).

A short description of data set [1]: Molar absorption coefficient (ɛ) at 630 nm. The format is physicochemical. On the procedure: The molar extinction coefficient or molar absorption (ɛ), of all synthesized pigments was determined in three different solvents (ethanol, methanol and DMSO). For each pigment, in each solvent, a range of concentrations was prepared and then the spectrum of each solution was read. Finally, the respective absorbances (collected at 630 nm) were represented as a function of concentration and the ɛ value was taken from the slope value of the equation curve.

For another data set, the system named is HaCaT cells. Briefly: Cellular photoactivation assay (white light or dark, Alamar Blue). The class given is cell-based, human. The following applies: for Dark cytotoxicity to HaCaT cells (in words) / Photoactivation, dark versus white light (in words) / IC50: 4 h incubation; for Dark cytotoxicity to HaCaT cells (in words) / Photoactivation, dark versus white light (in words): 6.25–100 μM applied; for Photoactivation, dark versus white light (in words): white light 6.6 J cm^−2; for IC50: Homo sapiens, HaCaT, concentrations corrected for uptake. How it is done:
A white light LED homemade device prototype has 96 LEDs appropriately arranged on a plate of 13 cm length × 8 cm width, with a distance from the microplate surface of 8 cm. The prototype has an irradiance of 21 W m^−2 and a wavelength range of 408–707 nm (Fig. S4).
For the cellular photoactivation assays, the white light source of 21 W m^−2 was used. Briefly, cells were seed at a density of 4 × 10^4 cells/mL onto 96 –well plates and after 24 h the compounds were added to the plates in different concentrations (6.25–100 μM) and incubated for a period of 4 h at 37 °C in an atmosphere of 5% CO2 and in the presence of DMEM with 2% FBS. After this period, the medium with the compounds was removed and fresh medium (DMEM with 2% FBS without phenol red (DMEM_2% FBS_w/o_PR) was added to cells. Following this procedure, cells were submitted to light irradiation, the selected light source at a height of 8 cm, in a chamber designed to ensure the same light quantity for each well during the treatment. Cells were irradiated for 10 min at an intensity of 50%, at room temperature (making a total energy exposition of 6.6 J cm^−2). The dark treatment was prepared by placing the plates for 10 min in a dark box at room temperature. After this, the 96 well plates were placed in an incubator at 37 °C in an atmosphere of 5% CO2 for 24 h. Then, to determine cell survival the Alamar Blue assay was performed as follows: after the 24 h, 20 μL of a solution of Resazurin (0.15 mg mL^−1 in PBS filtered in 0.22 μm filters) were added to each well (making a total volume of 120 μL per well), and the plates were incubated between 4–6 h (until the development of visible color change from violet to pink). The fluorescence intensity of each well was then determined at 560/590 nm (ex/em) (FlexStation 3 Multi-Mode Microplate Reader).

Details of data set [2]: method as in doi:10.1016/j.cplett.2017.02.055. Particulars: cited from earlier work.
A short description of data set [3]: Fluorescence quantum yield by the absolute method (integrating sphere). The class given is physicochemical. The following applies: in DMSO. On the procedure:
Based on the absorbance maxima of the different compounds (Fig. S2), the measurement of the quantum yield (QY) of the synthesized flavylium derivatives was performed using a calibrated Quantaurus-QY stand-alone integrating sphere setup C11347-11 (Hamamatsu Photonics, Hamamatsu, Japan) equipped with an integration sphere, a monochromator, a spectrograph, a 150 W xenon light source and a silicon charge coupled device. Each compound was dissolved in DMSO and diluted to ensure an absorbance of 0.1 from the λmax of excitation forward. Each compound was then irradiated at the corresponding wavelength and the absolute quantum yield determined. The fluorescence spectra was also recorded (Fig. S3). For each compound, four independent experiments were performed.

Data set [4] can be described thus: MTT cytotoxicity assay, keratinocytes. The format is cell-based. Particulars: human, HaCaT cells (keratinocytes), dark. On the procedure: The cytotoxicity of amino-based flavylium compounds to HFF-1 (ATCC Number: SCRC-1041) and HaCaT cells was evaluated using the standard MTT assay. Briefly, cells were seeded at a density of 8 × 10^5 and 4 × 10^4 cells/mL, respectively, in 96-well plate and incubated at 37 °C in a 5% CO2 atmosphere. Cells were allowed to grow for 24 h or until reaching monolayer confluency, and serially diluted compound solutions (6.3–100 µM) were added to the plate wells. The stock solutions of each compound were prepared at 200 mM in DMSO, the maximum % of DMSO in the cells was 0.05%. Then, cells were incubated for 48 h at 37 °C, after which the plate wells were washed once with phosphate buffered saline (PBS, Sigma-Aldrich), followed by addition of a 0.45 mg/mL MTT solution to each well. Crystals were allowed to form for 1.5 h. The reaction was stopped by rejecting the medium followed by the addition of 100 µL of DMSO (Sigma-Aldrich). The absorbance was read at 570 nm in FlexStation 3 Multi-Mode Microplate Reader (Molecular Devices, California, USA).

Data set [5] can be described thus: Maximum absorption wavelength of the flavylium cation. The class given is physicochemical. The following applies: species adsorbed/absorbed in cells.
[6] abbreviates: white light 6.6 J cm^−2 (10 min), read-out: IC50 of HaCaT cell survival, LIGHT.
Where [7] appears, read: 4 h, kept in the dark, read-out: IC50 of HaCaT cell survival, DARK.

Read-outs that look alike come from different tables or passages of the source.

As for `C=CC1=C(C)c2cc3[nH]c(cc4nc(cc5[nH]c(cc1n2)c(C)c5CCC(=O)O)C(CCC(=O)O)=C4C)c(C)c3C=C` [PpIX, protoporphyrin IX, reference compound], the “Molar absorption coefficient ɛ at 630 nm” value in data set [1] (DMSO) turned out to be 3207 M⁻¹ cm⁻¹. In addition, in the data set on HaCaT cells, the “Dark cytotoxicity to HaCaT cells (in words)” value (“Dark cytotoxicity” below) is “no cytotoxic effects in dark conditions” and the “Photoactivation, dark versus white light (in words)” value is given as “effective photoactivation from the three higher concentrations”. In addition, the IC50 with HaCaT cells (setting [6]) was 0.3 µM. Besides, the Fluorescence quantum yield in data set [2] is on record as 8.5%.
For `CCN(CC)c1ccc2ccc(/C=C/c3ccc(N(C)C)cc3)[o+]c2c1` [7NEt2st4′NMe2, 7-(diethylamino)-2-(4′-dimethylaminostyryl)-benzopyrylium], the “Molar absorption coefficient ɛ at 630 nm” value is listed as 15,728 M^−1 cm^−1 in data set [1] (DMSO), 16,281 M^−1 cm^−1 in data set [1] (Ethanol) and 22,749 M^−1 cm^−1 in data set [1] (Methanol). In addition, in data set [3], the “Quantum yield of fluorescence (Φf), mean ± SD” value came to 3.40 ± 0.17%. Further, the IC50 at 48 h in data set [4] (monolayer confluence) worked out at 91 ± 0.8 µM; in data set [4] (proliferation) it was 35.42 ± 0.02 µM. Besides, the “Dark cytotoxicity” value in the data set on HaCaT cells is “significant dark cytotoxicity”. Moreover, in the data set on HaCaT cells, the “Photoactivation, dark versus white light (in words)” value is recorded as “significant photoactivation was found for the last four concentrations”. Moreover, the IC50 in the data set with HaCaT cells (setting [7]) was found to be 5.11 ± 0.196 µM; with HaCaT cells (setting [6]), 1.08 ± 0.13 µM. Moreover, the “Maximum absorption wavelength of the flavylium cation” value (from here on “Maximum absorption wavelength”) in data set [5] came to 672 nm.
Regarding `CCN(CC)c1ccc2ccc(-c3ccc(N(C)C)cc3)[o+]c2c1` [7NEt24′NMe2, 7-diethylamino-4′-dimethylamino-benzopyrylium], the results for the “Molar absorption coefficient ɛ at 630 nm” value in data set [1] (DMSO), in data set [1] (Ethanol) and in data set [1] (Methanol) were 11,031 M^−1 cm^−1, 10,725 M^−1 cm^−1 and 8,720 M^−1 cm^−1, respectively. The “Quantum yield of fluorescence (Φf), mean ± SD” value in data set [3] was found to be 5.83 ± 0.28%. In addition, the “Dark cytotoxicity” value in the data set on HaCaT cells is listed as “absence of dark cytotoxicity”. The “Photoactivation, dark versus white light (in words)” value with HaCaT cells is recorded as “photoactivation even for low concentrations”. Further, in the data set with HaCaT cells (setting [6]), the 50% inhibitory concentration (IC50) amounted to 0.905 ± 0.231 µM. Further, the “Cell survival, minimum” value in the data set with HaCaT cells (white light irradiation, highest concentration applied) was 38%. In addition, the “Maximum absorption wavelength” value in data set [5] came to 596 nm.
Turning to `CCN(CC)c1ccc2ccc(-c3ccc(N)cc3)[o+]c2c1` [7NEt24′NH2, 4′-amino-7-diethylamino-benzopyrylium], the “Molar absorption coefficient ɛ at 630 nm” value in data set [1] (DMSO) was determined as 5687 M⁻¹ cm⁻¹; in data set [1] (Ethanol) it was 2225 M⁻¹ cm⁻¹; in data set [1] (Methanol), 1682 M⁻¹ cm⁻¹. Besides, the values for the IC50 at 48 h in data set [4] (monolayer confluence) and in data set [4] (proliferation) were 29.8 ± 0.8 µM and 8.9 ± 0.2 µM, respectively. In addition, the “Dark cytotoxicity” value in the data set with HaCaT cells was “significant decrease of cell survival”. Besides, the “Photoactivation, dark versus white light (in words)” value in the data set with HaCaT cells is reported as “potential photo-activation”. Besides, the IC50 in the data set on HaCaT cells (setting [7]) came to 3 ± 0.734 µM; in the data set on HaCaT cells (setting [6]) it was 1.53 ± 0.081 µM. Besides, in data set [5], the “Maximum absorption wavelength” value is 575 nm.
